Data reported in ChEMBL document CHEMBL5042497, “Design, synthesis, and biological evaluation of carbamate derivatives of N-salicyloyl tryptamine as multifunctional agents for the treatment of Alzheimer's disease” (Eur J Med Chem, 2022).
Calls of active or inactive are those of the source. The calls are words filed in the database; no cut-off is given here.

Assays:
Acetylcholinesterase [1] = molecular target: T1, Acetylcholinesterase (Electrophorus electricus, UniProt O42275); assay: Inhibition of electric eel AChE using acetylthiocholine iodide as substrate assessed as inhibition constant at 0.78 to 12.5 uM preincubated for 10 mins followed by substrate addition and measured for 15 mins by Lineweaver-Burk plot analysis
T1 sequence (O42275 whole entry): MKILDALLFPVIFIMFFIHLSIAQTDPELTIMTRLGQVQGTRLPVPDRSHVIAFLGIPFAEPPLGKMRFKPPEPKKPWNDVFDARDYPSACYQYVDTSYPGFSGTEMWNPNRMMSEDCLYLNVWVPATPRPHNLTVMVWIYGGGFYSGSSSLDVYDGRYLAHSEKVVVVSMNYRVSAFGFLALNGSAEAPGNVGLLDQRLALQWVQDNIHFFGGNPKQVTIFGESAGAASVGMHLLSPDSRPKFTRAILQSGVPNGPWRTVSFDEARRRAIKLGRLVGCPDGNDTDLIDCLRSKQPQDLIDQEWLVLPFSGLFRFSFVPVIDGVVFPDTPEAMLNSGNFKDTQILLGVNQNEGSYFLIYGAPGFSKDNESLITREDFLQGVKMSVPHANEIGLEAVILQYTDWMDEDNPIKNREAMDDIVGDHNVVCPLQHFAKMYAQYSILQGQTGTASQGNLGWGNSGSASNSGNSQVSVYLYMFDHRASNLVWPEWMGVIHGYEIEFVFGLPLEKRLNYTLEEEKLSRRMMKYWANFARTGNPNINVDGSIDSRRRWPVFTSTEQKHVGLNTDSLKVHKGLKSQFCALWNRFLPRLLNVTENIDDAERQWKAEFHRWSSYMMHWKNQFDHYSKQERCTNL

Cholinesterase [2] = molecular target: T2, Cholinesterase (Equus caballus, UniProt P81908); assay: Inhibition of equine serum BChE using butyrylthiocholine iodide as substrate assessed as inhibition constant at 0.78 to 12.5 uM preincubated for 10 mins followed by substrate addition and measured after 15 mins by Lineweaver-Burk plot analysis
T2 sequence (P81908 whole entry): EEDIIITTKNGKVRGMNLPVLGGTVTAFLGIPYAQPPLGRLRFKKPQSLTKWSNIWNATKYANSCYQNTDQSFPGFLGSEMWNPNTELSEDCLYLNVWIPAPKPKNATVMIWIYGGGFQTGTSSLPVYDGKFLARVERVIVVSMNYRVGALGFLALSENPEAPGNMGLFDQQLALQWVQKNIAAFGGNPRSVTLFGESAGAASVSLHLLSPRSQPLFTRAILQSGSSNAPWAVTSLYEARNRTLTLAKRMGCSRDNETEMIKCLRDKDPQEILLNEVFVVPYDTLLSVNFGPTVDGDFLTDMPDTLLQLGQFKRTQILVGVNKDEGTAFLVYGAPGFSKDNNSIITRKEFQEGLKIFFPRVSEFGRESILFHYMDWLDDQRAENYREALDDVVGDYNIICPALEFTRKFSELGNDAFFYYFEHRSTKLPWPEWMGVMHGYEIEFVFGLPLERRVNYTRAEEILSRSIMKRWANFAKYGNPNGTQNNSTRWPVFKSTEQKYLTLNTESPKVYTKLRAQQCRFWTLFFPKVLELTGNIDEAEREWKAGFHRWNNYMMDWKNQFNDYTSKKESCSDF

Cholinesterase [3] = molecular target: T2, Cholinesterase; assay: Inhibition of equine serum BChE using butyrylthiocholine iodide as substrate preincubated for 10 mins followed by substrate addition and measured after 15 mins by Ellman's method
Acetylcholinesterase [4] = molecular target: T1, Acetylcholinesterase; assay: Inhibition of electric eel AChE using acetylthiocholine iodide as substrate preincubated for 10 mins followed by substrate addition and measured for 15 mins by Ellman's method
BV-2 [5] = assay: cells; assay type: functional, cell-based; conditions: Mus musculus, BV-2, 24 h
Description: Cytotoxicity against mouse BV-2 cells assessed as reduction in cell viability measured after 24 hrs by MTT assay

HT-22 = assay: cells; assay type: functional, cell-based; conditions: Mus musculus, HT-22, 24 h
Description: Cytotoxicity against mouse HT-22 cells assessed as reduction in cell viability measured after 24 hrs by MTT assay

[6] = molecular target: Amyloid-beta precursor protein (Homo sapiens) (UniProt P05067); assay: Inhibition of amyloid beta (1 to 42 ) (unknown origin) aggregation at 20 umol/L incubated for 24 hrs by thioflavin-T fluorescence method relative to control; conditions: dose 20.0 µmol/L
Sequence of Amyloid-beta precursor protein (Homo sapiens) (P05067 whole entry): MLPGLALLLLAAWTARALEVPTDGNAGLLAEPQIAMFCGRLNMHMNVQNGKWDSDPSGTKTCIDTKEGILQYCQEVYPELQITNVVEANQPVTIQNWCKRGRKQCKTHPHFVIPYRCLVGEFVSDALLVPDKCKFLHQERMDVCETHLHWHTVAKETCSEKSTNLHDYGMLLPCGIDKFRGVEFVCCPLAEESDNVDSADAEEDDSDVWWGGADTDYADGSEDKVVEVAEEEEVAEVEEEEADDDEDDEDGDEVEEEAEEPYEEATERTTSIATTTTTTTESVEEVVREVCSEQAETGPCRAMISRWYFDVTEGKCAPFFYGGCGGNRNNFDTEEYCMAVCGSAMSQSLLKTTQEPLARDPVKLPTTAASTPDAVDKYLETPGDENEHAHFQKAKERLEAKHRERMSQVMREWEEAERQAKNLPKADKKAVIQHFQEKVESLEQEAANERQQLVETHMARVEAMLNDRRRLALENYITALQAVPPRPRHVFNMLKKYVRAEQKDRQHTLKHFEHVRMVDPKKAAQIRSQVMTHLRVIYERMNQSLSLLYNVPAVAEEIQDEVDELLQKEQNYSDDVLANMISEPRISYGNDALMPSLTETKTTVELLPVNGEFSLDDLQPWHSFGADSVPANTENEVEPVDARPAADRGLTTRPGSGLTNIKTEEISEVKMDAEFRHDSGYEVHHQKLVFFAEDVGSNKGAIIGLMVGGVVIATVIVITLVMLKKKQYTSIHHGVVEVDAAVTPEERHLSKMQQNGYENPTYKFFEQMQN

BV-2 [7] = assay: Anti-neuroinflammation in mouse BV-2 cells assessed as increase in LPS-induced IL-4 production measured after 24 hrs by ELISA; assay type: functional, cell-based; conditions: dose 6.25-25 µmol/L
BV-2 [8] = assay: Anti-neuroinflammation in mouse BV-2 cells assessed as decrease in LPS-induced IL-6 production at 6.25 to 25 umol/L measured after 24 hrs by ELISA; assay type: functional, cell-based; conditions: dose 6.25-25 µmol/L
BV-2 [9] = assay: Anti-neuroinflammation in mouse BV-2 cells assessed as inhibition of LPS-induced NO production at 100 to 3.125 umol/L measured after 24 hrs by Griess method; assay type: functional, cell-based; conditions: dose 100-3.125 µmol/L
BV-2 [10] = assay: Effect of compound on LPS- induced iNOS production in mouse BV-2 cells incubated for 24 hrs by western blot analysis; assay type: functional, cell-based; conditions: dose 6.25-25 µM
BV-2 [11] = assay: Effect of compound on LPS- induced ROS production in mouse BV-2 cells at 6.25 to 25 uM by microscopic analysis; assay type: functional, cell-based; conditions: dose 6.25-25 µM
[12] = Acute toxicity in Sprague-Dawley rat assessed as behavioral abnormality at 2000 mg/kg, IG administered as single dose measured after 14 days; assay type: organism-based; conditions: in vivo, po, 336 h, time 14 day
[13] = Acute toxicity in Sprague-Dawley rat assessed as abnormality in diet at 2000 mg/kg, IG administered as single dose measured after 14 days; assay type: organism-based; conditions: in vivo, po, 336 h, time 14 day
[14] = Acute toxicity in Sprague-Dawley rat assessed as abnormality in body weight at 2000 mg/kg, IG administered as single dose measured after 14 days; assay type: organism-based; conditions: in vivo, po, 336 h, time 14 day
[15] = Acute toxicity in Sprague-Dawley rat assessed as histological changes in heart at 2000 mg/kg, IG administered as single dose measured after 14 days by H and E staining based analysis; assay type: organism-based; conditions: in vivo, po, 336 h, time 14 day
[16] = Acute toxicity in Sprague-Dawley rat assessed as histological changes in liver at 2000 mg/kg, IG administered as single dose measured after 14 days by H and E staining based analysis; assay type: organism-based; conditions: in vivo, po, 336 h, time 14 day
[17] = Acute toxicity in Sprague-Dawley rat assessed as histological changes in spleen at 2000 mg/kg, IG administered as single dose measured after 14 days by H and E staining based analysis; assay type: organism-based; conditions: in vivo, po, 336 h, time 14 day
[18] = Acute toxicity in Sprague-Dawley rat assessed as histological changes in brain at 2000 mg/kg, IG administered as single dose measured after 14 days by H and E staining based analysis; assay type: organism-based; conditions: in vivo, po, 336 h, time 14 day
Mus musculus [19] = assay: Anti-alzheimer activity against scopolamine-induced cognitive dysfunction mouse model assessed as decrease in swimming distance at 100 mg/kg, po dosed for 10 days and measured after 30 mins on day 11 by Morris water maze test; assay type: functional, organism-based; conditions: time 10.0 day
[20] = Half life in Sprague-Dawley rat at 100 mg/kg, po measured upto 24 hrs by LC-MS analysis; assay type: ADME, organism-based; conditions: in vivo
[21] = Tmax in Sprague-Dawley rat at 100 mg/kg, po measured upto 24 hrs by LC-MS analysis; assay type: ADME, organism-based; conditions: in vivo
[22] = Cmax in Sprague-Dawley rat at 100 mg/kg, po measured upto 24 hrs by LC-MS analysis; assay type: ADME, organism-based; parameters: route oral, dose 100 mg/kg, time <=24; conditions: in vivo
[23] = AUC (0 to t) in Sprague-Dawley rat at 100 mg/kg, po measured upto 24 hrs by LC-MS analysis; assay type: ADME, organism-based; parameters: route oral, dose 100 mg/kg, time <=24; conditions: in vivo
[24] = MRT(0 to t) in Sprague-Dawley rat at 100 mg/kg, po measured upto 24 hrs by LC-MS analysis; assay type: ADME, organism-based; conditions: in vivo
Mus musculus [25] = assay: Anti-alzheimer activity against scopolamine-induced cognitive dysfunction mouse model assessed as increase in movement distance in central and peripheral area at 50 to 100 mg/kg,po dosed for 10 days and measured after 30 mins on day 11 by open field test; assay type: functional, organism-based; conditions: dose 50-100 mg/kg, time 10.0 day
Mus musculus [26] = assay: Anti-alzheimer activity against scopolamine-induced cognitive dysfunction mouse model assessed as increase in rate of time spend in central and peripheral area at 50 to 100 mg/kg,po dosed for 10 days and measured after 30 mins on day 11 by open field test; assay type: functional, organism-based; conditions: dose 50-100 mg/kg, time 10.0 day
Mus musculus [27] = assay: Anti-alzheimer activity against scopolamine-induced cognitive dysfunction mouse model assessed as […] of AChE activity in hippocampus at 50 to 100 mg/kg, po dosed for 10 days by colorimetric analysis; assay type: functional, organism-based; conditions: dose 50-100 mg/kg, time 10.0 day
Mus musculus [28] = assay: Anti-alzheimer activity against scopolamine-induced cognitive dysfunction mouse model assessed as change in neuron damage in hippocampal CA1 region at 50 to 100 mg/kg, po measured after 10 days by Nissl staining based assay; assay type: functional, organism-based; conditions: Hippocampus, dose 50-100 mg/kg, time 10.0 day
Mus musculus [29] = assay: Anti-alzheimer activity against scopolamine-induced cognitive dysfunction mouse model assessed as change in neuron damage in hippocampal CA3 region at 50 to 100 mg/kg, po measured after 10 days by Nissl staining based assay; assay type: functional, organism-based; conditions: Hippocampus, dose 50-100 mg/kg, time 10.0 day
BV-2 [30] = assay: Anti-neuroinflammation in mouse BV-2 cells assessed as decrease in LPS-induced TNF-alpha production at 6.25 to 25 umol/L measured after 24 hrs by ELISA; assay type: functional, cell-based; conditions: dose 6.25-25 µmol/L
BV-2 [31] = assay: Anti-neuroinflammation in mouse BV-2 cells assessed as decrease in LPS-induced iNOS activity at 6.25 to 25 umol/L by fluorescence based assay; assay type: functional, cell-based; conditions: dose 6.25-25 µmol/L
[32] = Acute toxicity in Sprague-Dawley rat assessed as abnormality in living off at 2000 mg/kg, IG administered as single dose measured after 14 days; assay type: organism-based; conditions: in vivo, po, 336 h, time 14 day
[33] = Acute toxicity in Sprague-Dawley rat assessed as lethal dose administered intragastrically as single dose measured after 14 days; conditions: in vivo, po, time 14 day
in vivo = conditions: Sprague-Dawley, rat, brain/plasma, 100 mg/kg
Description: Ratio of drug concentration in brain to plasma in Sprague-Dawley rat at 100 mg/kg measured at 10 mins by LC-MS analysis

## CON(C)C(=O)Oc1ccccc1C(=O)NCCc1c[nH]c2ccccc12
Acetylcholinesterase [1]
  Ki: 1600 nM
Cholinesterase [2]
  Ki: 892 nM
Cholinesterase [3]
  IC50: 1840 nM
Acetylcholinesterase [4]
  IC50: 3240 nM
BV-2 [5]
  IC50: 197000 nM
HT-22
  IC50: 140000 nM
[6]
  inhibition: 40.3%
BV-2 [7]
  Activity: Dose-Dependent Effect
BV-2 [8]
  Activity: Active
BV-2 [9]
  Activity: Active
BV-2 [10]
  Activity: Dose-Dependent Effect
BV-2 [11]
  Activity: Active
[12]
  Activity: Non-Toxic
[13]
  Activity: Non-Toxic
[14]
  Activity: Non-Toxic
[15]
  Activity: Non-Toxic
[16]
  Activity: Non-Toxic
[17]
  Activity: Non-Toxic
[18]
  Activity: Non-Toxic
Mus musculus [19]
  Activity: Active
[20]
  half-life: 5.34 h
[21]
  Tmax: 4.8 min
[22]
  Cmax: 3030 ng/mL
[23]
  AUC(0-t) at 24 h: 3900 ng·h/mL
[24]
  MRT last at 24 h: 4.89 h
Mus musculus [25]
  Activity: Dose-Dependent Effect
Mus musculus [26]
  Activity: Dose-Dependent Effect
Mus musculus [27]
  Activity: Active
Mus musculus [28]
  Activity: Active
Mus musculus [29]
  Activity: Active
BV-2 [30]
  Activity: Active
BV-2 [31]
  Activity: Active
[32]
  Activity: Non-Toxic
[33]
  LD50 at 336 h: > 2000 mg/kg
In vivo
  Kp at 10 min: 15.7
